Source: US20230202981A1, “NOVEL SMALL MOLECULES FOR TARGETED DEGRADATION OF UNTARGETABLE KRAS IN CANCER THERAPY” (Pillai Universal LLC, priority 2020, published 2023)
Like-named read-outs stand apart in the source and are kept apart here.

Key:
wild-type (WT) KRAS = assay: RAS activation assay, GTP-KRAS in wild-type cells; assay type: cell-based
From the text: Actually, mutant KRAS would interfere the balance between GEFs and GAPs, resulting in locking in the active GTP-bound KRAS state and aberrant stimulation of its downstream signaling.
Significant increased expression of Immune cells has been observed in Compound 1 treatment.

BRCA 1/2-deficient cells = assay: Toxicity to BRCA-deficient cells; assay type: cell-based; details: including cisplatin-resistant ones
PD-L1 = PD-L1 expression; assay type: cell-based
From the text: (§1) The present invention is aimed to invent powerful, therapeutic small molecules that could target mutant KRAS on its active sites. Here we identified a small molecule, compound I, that binds the GTP/GDP-binding pocket of KRAS. For this purpose we studied a strong correlation of measurement among a larger panel of tumor cell lines expressing KRAS mutation and analyses the potency to inhibit the tumor cell growth activated RAS. […] Therefore, compound I may be considered as a potential KRAS inhibitor for treatment of cancer cells carrying KRAS oncogene.

In vivo toxicity studies = assay: In vivo toxicity studies
From the text: FIG. 20 depicts the results of in vivo toxicity studies of Compound 1. Organ weight, Body weight, liver weight, haematological parameters, serum electrolyte LFT, KFT, Lipid parameters found to be normal range compared with the controlled group.
Tests of blood cells (WBC, RBC, and PLT) for bone marrow, RFT for kidney, and ALT/AST for liver functions all provided results in the normal range.

Pharmacokinetics in mice = assay type: in vivo
tumor xenograft = assay: Nude mouse xenograft models (EGFR/HER2 study); assay type: in vivo
From the text: (§2) The activity of Compound 1 on various mutated EGFRs, HER2, and HER4 were examined. MTT assays, flow cytometry, and Western blotting were used to examine the effects of Compound 1 on with different genetic characteristics and relevant molecular mechanisms. Nude mouse xenograft models with cells were used to evaluate the in vim anti-tumor activity of Compound 1. […] Compound 1 blocked EGFR phosphorylation, thereby down regulating downstream PI3/AKT and MAPK/ERK signaling pathways and inducing G0/G1 arrest in different cells. […] Due to compromised homologous recombination (HR) repair, BRCA 1-and BRCA 2-mutated tumours accumulate DNA damage and genomic rearrangements conducive of tumour progression.

[1] = test system: RAS-MAPK pathway signaling in KRAS G12C mutant cell lines; assay: Reactivation of RAS signaling in KRAS G12C mutant cell lines; assay type: cell-based
From the text: Densitometry of phosphor-ERK, MEK, AKT, and MYC is normalized to GAPDH. Results represent an average across 8 cell lines.

Oral bioavailability = assay type: in vivo
[2] = test system: KRAS downstream signaling proteins in wild type KRAS; assay: Downstream signaling proteins, wild type KRAS (protein and gene expression analysis); assay type: cell-based
[3] = test system: mutant-KRAS-driven cancer; assay: In vivo tumor model (PDTX animal model); parameters: species or system mice
From the text: FIG. 18 depicts regression of all mutant-KRAS-driven cancer in PDTX Animal Model.
Compound 1 was also found to inhibit downstream signaling.

RAS = assay: Effect on RAS degradation (GSK3β, Wnt/β-catenin pathway proteins); assay type: cell-based
[4] = test system: cancer cells expressing KRAS mutations; assay: Cell viability assay in cancer cells expressing KRAS mutations; assay type: cell-based
From the text: It was further examined that if Compound 1 can also induce cytotoxic effects on other cancer cells expressing KRAS mutations, a panel of cancer cell lines which harbor KRAS G12D, G12V and G12C point mutations respectively, were selected and used with KRAS wild-type (WT) controls.
The cytotoxicity of Compound 1 was initially evaluated in a panel of 30+ cell lines with wild-type (WT) KRAS or known KRAS mutations.

wild-type (WT) HER2 = wild-type (WT) HER2 (Homo sapiens, UniProt P04626); assay: Enzyme activity of EGFR family members; assay type: biochemical
Chain of wild-type (WT) HER2 (P04626 23-1255): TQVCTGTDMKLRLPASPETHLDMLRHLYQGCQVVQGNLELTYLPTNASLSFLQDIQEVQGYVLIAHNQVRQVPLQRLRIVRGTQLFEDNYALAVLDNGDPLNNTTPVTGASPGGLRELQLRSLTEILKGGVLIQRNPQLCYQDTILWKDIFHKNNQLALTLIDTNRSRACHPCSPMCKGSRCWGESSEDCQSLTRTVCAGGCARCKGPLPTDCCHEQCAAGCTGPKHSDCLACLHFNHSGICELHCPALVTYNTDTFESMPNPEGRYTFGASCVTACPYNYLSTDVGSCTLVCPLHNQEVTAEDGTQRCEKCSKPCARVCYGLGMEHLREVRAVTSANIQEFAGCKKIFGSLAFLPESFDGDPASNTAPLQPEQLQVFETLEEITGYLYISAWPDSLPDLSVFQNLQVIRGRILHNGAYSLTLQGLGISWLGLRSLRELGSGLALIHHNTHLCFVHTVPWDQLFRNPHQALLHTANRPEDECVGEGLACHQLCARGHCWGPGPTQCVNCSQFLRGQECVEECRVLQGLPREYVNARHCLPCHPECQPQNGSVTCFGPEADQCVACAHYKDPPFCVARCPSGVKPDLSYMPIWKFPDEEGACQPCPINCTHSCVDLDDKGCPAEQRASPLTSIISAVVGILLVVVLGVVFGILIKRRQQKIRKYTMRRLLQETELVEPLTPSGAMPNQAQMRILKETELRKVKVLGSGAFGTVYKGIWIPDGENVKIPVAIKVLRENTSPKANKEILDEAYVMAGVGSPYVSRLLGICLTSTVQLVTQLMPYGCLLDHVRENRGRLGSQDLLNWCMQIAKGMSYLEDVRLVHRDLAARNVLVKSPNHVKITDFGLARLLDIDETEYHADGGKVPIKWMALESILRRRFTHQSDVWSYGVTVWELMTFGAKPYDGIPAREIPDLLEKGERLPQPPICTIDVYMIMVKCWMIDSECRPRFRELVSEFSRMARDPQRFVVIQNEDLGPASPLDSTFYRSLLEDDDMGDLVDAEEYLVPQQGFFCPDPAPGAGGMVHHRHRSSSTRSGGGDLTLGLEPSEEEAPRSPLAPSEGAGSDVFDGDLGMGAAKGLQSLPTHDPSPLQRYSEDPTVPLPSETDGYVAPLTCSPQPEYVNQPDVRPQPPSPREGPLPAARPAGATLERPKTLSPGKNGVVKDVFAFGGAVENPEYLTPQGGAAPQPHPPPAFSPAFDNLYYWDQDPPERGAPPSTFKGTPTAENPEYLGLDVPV
From the text: as §2

[5] = test system: drug-sensitive EGFR mutations, and EGFR C797S mutations; assay: Enzyme activity of EGFR family members; assay type: biochemical
From the text: as §2

normal cell lines = assay: Toxicity in normal cell lines; assay type: cell-based
[6] = test system: CRAF, AKT and ERK phosphorylation in KRAS mutant cell lines; assay: Phosphorylation of KRAS downstream signaling pathway; assay type: cell-based; details: 48 h, time-dependent
Method: Active KRAS stimulates downstream signaling pathways, especially for RAF/MEK/ERK and […] pathway, and then induces cell proliferation. Therefore, to investigate the effect of Compound 1, the phosphorylation levels of CRAF, AKT and ERK in cell lines was examined to monitor the impact of KRAS signaling by treatment with this compound for 48 h.

KRAS = KRAS (Homo sapiens, UniProt P01116); assay: Binding to KRAS in vitro
Chain of KRAS (P01116 1-188 isoform P01116-2): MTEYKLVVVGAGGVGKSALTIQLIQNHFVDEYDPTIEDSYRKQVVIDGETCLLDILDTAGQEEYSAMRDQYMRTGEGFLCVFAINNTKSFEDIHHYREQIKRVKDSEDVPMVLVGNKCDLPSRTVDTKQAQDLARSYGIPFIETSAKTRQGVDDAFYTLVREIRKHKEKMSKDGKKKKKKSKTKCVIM
From the text: as §1
From the above biological examples it is clearly inferred that the Compound 1 as a new class of KRAS that selectively targets the GTP/GDP binding pocket. […] Compound 1 to 5-induced hyperactivation of mutant KRAS facilitates apoptotic cell death in mutant KRAS cancer cells. Combining the results with detailed structural analysis, we are able to describe key ligand-receptor interactions that correlate with activity. Thus, showing that our screening techniques were very successful at generating KRAS binders that have effects on signaling in cells. […] Therefore, compound Compound 1 is a promising hit for the development of novel non-covalent KRAS inhibitors. The development of this new class of anticancer drug offers a potentially effective strategy for the treatment of cancer with KRAS mutation and/or mutant KRAS-driven cancer. […]

With CCCCc1ncc(C(=O)C2CC=C(C(N)=O)N2)cc1C(=O)OCC (stereo not drawn) [Compound 1] the “GTP binding affinity in wild type KRAS” value (wild-type (WT) KRAS; wild type KRAS) was “no effect on GTP binding affinity”, the “effect on GTP-KRAS in cells with wild-type KRAS” value (wild-type (WT) KRAS; wild-type (WT) KRAS cells) was “no effect was observed” and the “toxicity to BRCA 1/2-deficient cells” value (BRCA 1/2-deficient cells) was “specifically toxic”. For the same molecule, the PD-L1 expression (PD-L1) was “suppresses PD-L1 expression”, the “histopathology of harvested normal tissues” value (In vivo toxicity studies; after treatment with specific doses) was “no evidence of normal tissue toxicities” and the “blood cells, kidney and liver function tests, organ and body weight” value (In vivo toxicity studies; compared with the controlled group) was “normal range”. For the same molecule, the T1/2 (Pharmacokinetics in mice) was “T1/2 = 5.8 h (mice)”, the Cmax (Pharmacokinetics in mice; 10 mg/kg b.wt.) was “Cmax = 2.6 μg/mL (10 mg/kg b.wt. mice)” and the T max (Pharmacokinetics in mice; 10 mg/kg b.wt.) was “T max = 2 h (mice 10 mg/kg, b.wt;)”. The tumor growth (tumor xenograft) was “inhibited tumor growth”, the “MAPK pathway signaling (phosphor-MEK, phosphor-ERK, phosphor-AKT)” value ([1]; at 4 hours) was “suppressed MAPK pathway signaling” and the “rebound of RAS-MAPK pathway signaling (pMEK, pERK, pAKT, MYC)” value ([1]; by 72 hours) was “no rebound activity was observed”. For the same molecule, the “F (Bioavailability)” value (Oral bioavailability) was “F-92% (Bioavailability)”, the “expression of KRAS downstream signaling proteins MEK, RAF and PI3K” value [2] was “has not altered the expression” and the pERK level ([2]; control 1.42 ± 0.069) was 1.46 ± 0.23. The pCRAF level ([2]; control 1.52 ± 0.025) was 1.42 ± 0.25, the pP13K level ([2]; control 1.85 ± 0.32) was 1.62 ± 0.63 and the pAKt level ([2]; control 1.89 ± 0.63) was 1.72 ± 0.14. The pMEK level ([2]; control 1.96 ± 0.22) was 1.85 ± 0.32, the tumor growth suppression ([3]; all mutant-KRAS-expressing animal models, started at day 9) was “significant suppression from day 10-14” and the relapse ([3]; for 6-8 months) was “no evidence of relapse”. The “reduction in tumor growth” value ([3]; within 28 days) was 95%, the Axin level (RAS; control 0.25 ± 0.05) was 1.96 ± 0.02 and the APC level (RAS; control 0.63 ± 0.03) was 0.96 ± 0.44. The GSk3β level (RAS; control 0.69 ± 0.02) was 1.89 ± 0.23, the “Beta Catenin level” value (RAS; control 1.32 ± 0.09) was 0.66 ± 0.09 and the RAS level (RAS; control 1.96 ± 0.06) was 0.25 ± 0.03. For the same molecule, the RAS degradation (RAS; via GSK3β phosphorylation) was “degrades the RAS”, the “IC50 values, cancer cells and stem cells viability” value ([4]; KRAS G12D, G12V and G12C cell lines, 24 h) was “nanomolar concentration” and the “IC50 values, cancer cell viability” value ([4]; panel of 30+ cell lines with WT KRAS or known KRAS mutations) was “micromolar to nanomolar concentrations”. The “enzyme activity of HER2” value (wild-type (WT) HER2) was “effectively inhibited the enzyme activity”, the “enzyme activity of mutated EGFR” value [5] was “effectively inhibited the enzyme activity” and the “toxicity in normal cell lines” value (normal cell lines) was “minimum toxicity”. The “levels of phosphorylation of CRAF and AKT” value [6] was “reduced the levels of phosphorylation”, the “binding affinity to KRAS” value (KRAS) was “nanomolar binder” and the “binding affinity to KRAS” value (KRAS; listed as Compound I) was “good binding affinity”.
